# The supplement of paper PMC11061612
# Key:
# Assay in all cases: combination Emax (second highest fraction inhibited in the dose matrix, 72 h); higher = more inhibition; extreme values may be limits of the assay
# [1] = test system: SU-DHL-5 (B-Cell Non-Hodgkin's Lymphoma)
# Summary of the method: (§1)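 Cell lines grown in DMEM/F12 or RPMI with 10% FBS were plated in 1536-well plates and held 24 hours at 37°C, 5% CO2 before 72 hours of exposure to two-drug dose matrices, with DMSO typically at 0.2%. CellTiter-Glo 2.0 luminescence gave viability, which was converted to inhibition. Vehicle wells were set to 0 and blank wells to 1. Combination Emax is the second-highest inhibition in the matrix, and Bliss excess is the observed combination effect minus the expected EA + EB − EA·EB, where EA and EB are the single-agent effects.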
# [2] = test system: H9 (T-Cell Non-Hodgkin's Lymphoma)
# Summary of the method: as §1
# [3] = test system: NCI-H661 (Non-Small Cell Lung Carcinoma)
# Summary of the method: as §1
# [4] = test system: RPMI-8226 (Plasma Cell Myeloma)
# Summary of the method: as §1
# [5] = test system: KP-3 (Pancreatic Carcinoma)
# Summary of the method: as §1
# [6] = test system: SNU-398 (Hepatocellular Carcinoma)
# Summary of the method: as §1
# [7] = test system: CW-2 (Colorectal Carcinoma)
# Summary of the method: as §1
# [8] = test system: KMS-12-BM (Plasma Cell Myeloma)
# Summary of the method: as §1
# [9] = test system: NCCIT (Other Solid Carcinomas)
# Summary of the method: as §1
# [10] = test system: KY821 (Acute Myeloid Leukemia)
# Summary of the method: as §1
# [11] = test system: NCI-H3122 (Lung Adenocarcinoma)
# Summary of the method: as §1
# [12] = test system: DAN-G (Pancreatic Carcinoma)
# Summary of the method: as §1
# [13] = test system: SUP-B15 (B-Lymphoblastic Leukemia)
# Summary of the method: as §1
# [14] = test system: SK-GT-4 (Esophageal Adenocarcinoma)
# Summary of the method: as §1
# [15] = test system: KYSE-270 (Esophageal Squamous Cell Carcinoma)
# Summary of the method: as §1
# [16] = test system: KU812 (Chronic Myelogenous Leukemia)
# Summary of the method: as §1
# [17] = test system: MOG-G-CCM (Low Grade Glioma)
# Summary of the method: as §1
# [18] = test system: HCC1419 (Breast Carcinoma)
# Summary of the method: as §1
# [19] = test system: ESO51 (Esophageal Adenocarcinoma)
# Summary of the method: as §1
# RD (Rhabdomyosarcoma) = test system: RD (Rhabdomyosarcoma)
# Summary of the method: as §1
Structure (SMILES),combination Emax [1],combination Emax [2],combination Emax [3],combination Emax [4],combination Emax [5],combination Emax [6],combination Emax [7],combination Emax [8],combination Emax [9],combination Emax [10],combination Emax [11],combination Emax [12],combination Emax [13],combination Emax [14],combination Emax [15],combination Emax [16],combination Emax [17],combination Emax [18],combination Emax [19],combination Emax (RD (Rhabdomyosarcoma))
"CN(CCO)CC[C@H](CSc1ccccc1)Nc1ccc(S(=O)(=O)NC(=O)c2ccc(N3CCC([C@@H](O)c4ccccc4-c4ccc(Cl)cc4)CC3)cc2)cc1S(=O)(=O)C(F)(F)F [AZD4320] + C=CCn1c(=O)c2cnc(Nc3ccc(N4CCN(C)CC4)cc3)nc2n1-c1cccc(C(C)(C)O)n1 [AZD1775] (first compound max 1 µM, partner max 1 µM)",1,1,0.613,0.997,0.314,0.739,0.324,1,0.878,1,0.845,0.904,1,0.349,0.632,0.956,0.733,0.0041,0.775,0.92
"CC1(C)CCC(CN2CCN(c3ccc(C(=O)NS(=O)(=O)c4ccc(NCC5CCOCC5)c([N+](=O)[O-])c4)c(Oc4cnc5[nH]ccc5c4)c3)CC2)=C(c2ccc(Cl)cc2)C1 [Venetoclax] + C[C@@H](Nc1cc(F)cc(F)c1)c1cc(C(=O)N(C)C)cc2c(=O)cc(N3CCOCC3)oc12 [AZD8186] (first compound max 1 µM, 7x7, partner max 3 µM)",0.984,0.299,0.164,0.194,0.0603,0.166,0.0925,1,0.177,1,0.134,0.0841,1,0.229,0.653,0.205,0.398,0.181,0.334,0.265
"CN(CCO)CC[C@H](CSc1ccccc1)Nc1ccc(S(=O)(=O)NC(=O)c2ccc(N3CCC([C@@H](O)c4ccccc4-c4ccc(Cl)cc4)CC3)cc2)cc1S(=O)(=O)C(F)(F)F [AZD4320] + C[C@@H]1COCCN1C2=NC(=NC(=C2)C3(CC3)[S@](=N)(=O)C)C4=C5C=CNC5=NC=C4 [AZD6738] (first compound max 1 µM, 7x7, partner max 10 µM)",1,1,0.674,1,0.486,0.77,0.49,1,0.727,1,0.675,0.765,1,0.675,0.78,0.942,0.783,0.367,0.861,0.781
"CN(C)CCCOc1ccc(-c2ccc3ncc4c(c3c2)n(C2CCOCC2)c(=O)n4C)cn1 [AZD0156] + C=CCn1c(=O)c2cnc(Nc3ccc(N4CCN(C)CC4)cc3)nc2n1-c1cccc(C(C)(C)O)n1 [AZD1775] (first compound max 1 µM, partner max 1 µM)",0.977,0.891,0.523,0.656,0.211,0.473,0.292,0.948,0.858,0.987,0.765,0.651,0.602,0.4,0.676,0.789,0.4,0.104,0.69,0.401
"Cc1c2c(nn1C)CSCc1cc(n(C)n1)CSc1cc(c3ccccc3c1)OCCCc1c(C(=O)O)n(C)c3c-2c(Cl)ccc13 [AZD5991] + C1CN(CCC1(C(=O)N[C@@H](CCO)C2=CC=C(C=C2)Cl)N)C3=NC=NC4=C3C=CN4 [Capivasertib] (first compound max 1 µM, 7x7, partner max 3 µM)",1,0.847,0.755,0.976,0.135,1,0.179,1,0.82,1,0.419,0.401,1,0.377,0.505,0.858,0.326,0.555,0.0827,0.535
"COc1nnc2ccc(N3CCC(c4ccc(OCCN5CCN(C)C(=O)[C@H]5C)cc4)CC3)nn12 [AZD5153] + CCN(CCO)CCCOc1ccc2c(Nc3cc(CC(=O)Nc4cccc(F)c4)[nH]n3)ncnc2c1 [AZD2811] (first compound max 1 µM, 7x7, partner max 1 µM)",0.999,1,0.375,0.8,0.281,0.628,0.542,0.998,0.832,1,0.668,0.409,1,0.538,0.439,0.935,0.571,0.355,0.639,0.605
"Cc1c2c(nn1C)CSCc1cc(n(C)n1)CSc1cc(c3ccccc3c1)OCCCc1c(C(=O)O)n(C)c3c-2c(Cl)ccc13 [AZD5991] + CN(C)CCCOc1ccc(-c2ccc3ncc4c(c3c2)n(C2CCOCC2)c(=O)n4C)cn1 [AZD0156] (first compound max 1 µM, 7x7, partner max 1 µM)",1,0.834,0.505,0.963,–,1,0.154,1,0.641,1,0.405,0.48,1,0.277,0.542,0.828,0.249,0.385,0.205,0.603
"C[C@@H](c1ccc2nccn2c1)n1nnc2ncc(-c3cnn(C)c3)nc21 [Savolitinib] + CN(CC[C@H](CSC1=CC=CC=C1)NC2=C(C=C(C=C2)S(=O)(=O)NC(=O)C3=CC=C(C=C3)N4CCC(CC4)[C@H](C5=CC=CC=C5C6=CC=C(C=C6)Cl)O)S(=O)(=O)C(F)(F)F)CCO [AZD4320] (first compound max 1 µM, 7x7, partner max 1 µM)",0.24,0.929,0.189,0.944,–,0.245,–,1,–,1,–,0.199,1,–,–,–,–,0.325,0.95,0.646
"C=CCn1c(=O)c2cnc(Nc3ccc(N4CCN(C)CC4)cc3)nc2n1-c1cccc(C(C)(C)O)n1 [AZD1775] + C[C@@H]1COCCN1C2=NC(=NC(=C2)C3(CC3)[S@](=N)(=O)C)C4=C5C=CNC5=NC=C4 [AZD6738] (first compound max 1 µM, partner max 10 µM)",1,1,0.689,0.983,–,0.563,0.682,1,0.905,1,0.872,0.763,0.914,0.722,1,0.849,0.682,0.221,0.754,0.655
"C[C@@H]1COCCN1c1cc(C2([S@](C)(=N)=O)CC2)nc(-c2ccnc3[nH]ccc23)n1 [AZD6738] + O=C(c1cc(Cc2n[nH]c(=O)c3ccccc23)ccc1F)N1CCN(C(=O)C2CC2)CC1 [Olaparib] (first compound max 10 µM, 7x7, partner max 10 µM)",1,0.911,0.54,0.96,–,0.354,0.473,0.945,0.609,0.97,0.726,0.643,0.969,0.51,0.794,0.806,0.42,0.191,0.555,0.332
"Cc1c2c(nn1C)CSCc1cc(n(C)n1)CSc1cc(c3ccccc3c1)OCCCc1c(C(=O)O)n(C)c3c-2c(Cl)ccc13 [AZD5991] + Cn1cnc2c(F)c(Nc3ccc(Br)cc3Cl)c(C(=O)NOCCO)cc21 [Selumetinib] (first compound max 1 µM, 7x7, partner max 3 µM)",1,1,0.462,0.96,–,1,0.314,1,0.579,1,0.881,0.84,1,0.574,0.76,0.949,0.195,0.284,0.361,0.625
"COc1nnc2ccc(N3CCC(c4ccc(OCCN5CCN(C)C(=O)[C@H]5C)cc4)CC3)nn12 [AZD5153] + CN(CC[C@H](CSC1=CC=CC=C1)NC2=C(C=C(C=C2)S(=O)(=O)NC(=O)C3=CC=C(C=C3)N4CCC(CC4)[C@H](C5=CC=CC=C5C6=CC=C(C=C6)Cl)O)S(=O)(=O)C(F)(F)F)CCO [AZD4320] (first compound max 1 µM, 7x7, partner max 1 µM)",0.994,1,0.272,0.996,–,0.451,–,1,–,1,–,0.345,1,–,–,–,–,0.277,0.666,0.939
